Consider three molecules from patent US4567182A, “Compounds endowed with immunomodulating activity” (Co Pharma Corporation s.r.l., priority 1981, dated 1986).

The test system of one assay is T-lymphocytes. Kind of assay: Ability of T-lymphocytes to form "active" E-rosettes. The format is cell-based. The method, then: The effect of the compounds object of this invention on the ability of T-lymphocytes to form "active" E-rosettes, has also been studied (Pasino e coll., Boll. Ist. Sieroter, Mil. 60, 4, 297-301, 1981).
Lymphocytes were incubated at 4° for 24 hours, then isolated and incubated for 90 min. in the presence or absence of different concentrations of the drug prior to the assay. Data were expressed as % of cells forming rosettes: as an example, compound (Ib-2) gave an enhancement of the percentage from 35 to 50%, at concentrations from 1 and 3 μg/ml; higher concentrations, the percentage of active E-rosettes decreased.

In assay [1] the test system is PHA stimulated lymphocytes. Kind of assay: Stimulation by phytohemagglutinin (PHA) of lymphocytes from Hodgkin's disease patients. The format is cell-based, human (patients affected by Hodgkin's disease). As to conditions: for effect on the PHA response: Ib-4 already at 0.1 γ/ml, methisoprinol at 200-400 γ/ml. The source says: In FIG. 1, the effects of compound (Ib-4) are shown in comparison with methisoprinol on the stimulation by phytohemagglutinin (PHA) of lymphocytes extracted by patients affected by Hodgkin's disease and off-therapy since, at least, 17 months. The PHA response of lymphocytes of these patients are below normal range.
The in vitro effect of (Ib, 4) and methisoprinol on the stimulation by PHA of lymphocytes was studied by cultivating PHA stimulated lymphocytes in the presence of these compounds at different doses: methisoprinol at 100, 200, 400 γ/ml; (Ib-4) at 0.1, 0.5, 1 and 5 γ/ml.

Assay [2] concerns polymorphonuclear leucocytes. Nature of the assay: Polymorphonuclear (PMN) membrane-stimulated oxidative metabolic activity (superoxide production). It is filed as cell-based. The method, then:
In FIG. 2 the results of the study of the effect of (Ib-4) on the polymorphonuclear (PMN) […] membrane-stimulated oxidative metabolic activity are reported: polymorphonuclear leucocytes (2.5×10^4 /ml) in phosphate buffer solution (PBS) were incubated for 15' at 37° C. with ferricytochrome C (1.5 mg/ml) in the presence or absence of superoxide dismutase (SOD) (0.125 mg/ml) after the addition of 50 μl of stimulating agent.
The amount of reduced cytochrome C in che cell free supernatant was determined spectrophotometrically at 550 nm and the O2^- release calculated according to a standard formula. Appropriate control tubes contained fixed doses of (Ib-4) (from 0.01 γ/ml to 200 γ/ml).

Assay [3] concerns spleen cells from BALB/C mice. Kind of assay: Incorporation of labelled thymidine stimulated by PHA or LPS in spleen cells. It is filed as cell-based, mouse (BALB/C). Also on record: Thymid. inc.: unit not given here. The method, then: Ib-4 is also active, at doses ranging from 0.001 to 40 μg/ml, in inhibiting the incorporation of labelled thymidine stimulated by phytohemagglutinin (PHA) or lypopolysaccharides (LPS), in spleen cells from BALB/C mice 8-10 weeks old. The inhibition of the proliferation in vitro is dose-dependent and it is probably due to activation of suppressor cell mechanism. In the following table the results of thymidine incorporation in a 10^6 cells/ml culture have been listed.

Assay [4] concerns autologous lymphocytes stimulated by concanavalin A. Kind of assay: Suppressor cell effect: proliferative response of autologous lymphocytes stimulated by concanavalin A. It is filed as cell-based, human (healthy volunteers). As to conditions: 0.1 to 1.5 μg/ml; 48 h drug incubation; concanavalin A 3 days. Here is the method: (§1) The effect of (Ib-4) on the suppressor cell has also been studied using lymphocytes from healthy volunteers, incubated for 48 hours with different drug concentrations then washed and incubated either with autologous lymphocytes stimulated by concanavalin A for 3 days or with allogeneic mitomycin-treated lymphocytes for 5 days (Mixed Lymphocytes Reaction): (Ib-4), at concentrations between 0.1 and 1.5 μg/ml, gave an inhibition of the proliferative response of about 60% in comparison with controls.

Assay [5] concerns allogeneic mitomycin-treated lymphocytes. Kind of assay: Suppressor cell effect: Mixed Lymphocytes Reaction. As to conditions: 0.1 to 1.5 μg/ml; 48 h drug incubation; mixed lymphocytes 5 days. The format is cell-based, human (healthy volunteers). Here is the method: as §1

Bounds are passed on as bounds.

Consider `CC(NC(=O)CCC(=O)OCCn1cnc2c(O)ncnc21)C(=O)O` (racemic) [Ib-2, 6-Hydroxy-9-{2-[2-(1-carboxy)ethylaminocarbonylethyl]carbonyloxyethyl}purine], for which, in the assay with T-lymphocytes (1 and 3 μg/ml, enhanced from 35%, 90 min incubation), the “% of cells forming active E-rosettes” value is on record as 50%. Moreover, in the assay on T-lymphocytes (concentrations higher than 1 and 3 μg/ml), the “percentage of active E-rosettes at higher concentrations” value is recorded as “decreased”.
Consider `N=C(NCCC[C@H](N)C(=O)O)NC(=O)CCC(=O)OCCn1cnc2c(O)ncnc21` [Ib-4, N-{3-[2-(6-hydroxypurinyl-9)-ethoxycarbonyl]propionyl}-N'-(4-carboxy-4-amino-butyl)guanidine], for which the minimal effective concentration in assay [1] (Homo sapiens, Lymphocyte, in vitro, lymphocytes of Hodgkin's disease patients off-therapy, read-out: dose producing enhancement of the PHA response) is not above 0.1 µg/mL. For the same molecule, the “effect on the PHA response” value in assay [1] is reported as “marked enhancement of the PHA response”. Also, the “enhancement in the superoxide production” value in assay [2] (1 γ/ml, T-test for paired data) is on record as “statistically significant enhancement in the superoxide production”. The “O2- production at higher dosages” value in assay [2] (dosages higher than 1 γ/ml (up to 200 γ/ml)) was “gradual decrease of the O2^- production”. Also, the Thymid. inc. in assay [3] (LPS (printed LPSD), drug 0.1 μg/ml, control without drug 15631+/-215) is recorded as 729+/-51; in assay [3] (LPS, drug 0.001 μg/ml, control without drug 15631+/-215), 4600+/-85; in assay [3] (LPS, drug 0.01 μg/ml, control without drug 15631+/-215), 435+/-113; in assay [3] (LPS, drug 1 μg/ml, control without drug 15631+/-215), 665+/-19; in assay [3] (LPS, drug 2.5 μg/ml, control without drug 15631+/-215), 627+/-40; in assay [3] (LPS, drug 5 μg/ml, control without drug 15631+/-215), 445+/-44. The Thymid. inc. was 385+/-38 in assay [3] (LPS, drug 10 μg/ml, control without drug 15631+/-215); 405+/-51 in assay [3] (LPS, drug 15 μg/ml, control without drug 15631+/-215); 385+/-38 in assay [3] (LPS, drug 20 μg/ml, control without drug 15631+/-215); 329+/-23 in assay [3] (LPS, drug 40 μg/ml, 10^6 cells/ml, control without drug 15631+/-215); 840+/-87 in assay [3] (PHA, drug 0.001 μg/ml, control without drug 3089+/-177); 850+/-61 in assay [3] (PHA, drug 0.01 μg/ml, control without drug 3089+/-177). Besides, the Thymid. inc. was 721+/-77 in assay [3] (PHA, drug 0.1 μg/ml, control without drug 3089+/-177); 316+/-78 in assay [3] (PHA, drug 1 μg/ml, control without drug 3089+/-177); 250+/-34 in assay [3] (PHA, drug 2.5 μg/ml, control without drug 3089+/-177); 193+/-50 in assay [3] (PHA, drug 5 μg/ml, control without drug 3089+/-177); 146+/-19 in assay [3] (PHA, drug 10 μg/ml, control without drug 3089+/-177); 141+/-40 in assay [3] (PHA, drug 15 μg/ml, control without drug 3089+/-177). Further, the Thymid. inc. in assay [3] (PHA, drug 20 μg/ml, control without drug 3089+/-177) was 241+/-16; in assay [3] (PHA, drug 40 μg/ml, 10^6 cells/ml, control without drug 3089+/-177), 159+/-13. Moreover, in assay [3] (PHA or LPS stimulated, 0.001 to 40 μg/ml), the “inhibition of the proliferation in vitro” value was “dose-dependent”. Also, the “inhibition of the proliferative response in comparison with controls” value in assay [4] and in assay [5] was “about 60%” throughout.
Regarding methisoprinol [reference compound], the “effect on the PHA response” value in assay [1] is “a stimulating effect which is less than that produced by (Ib-4)”. Moreover, the “dose producing enhancement of the PHA response” value in assay [1] (in vitro, lymphocytes of Hodgkin's disease patients off-therapy) is 200 to 400 µg/mL.
